The results in this text go back to US4820834A, “Benzodiazepine analogs” (priority 1987, dated 1989).

Molecules are shown by their SMILES. Read-outs that look alike come from different tables or passages of the source.

One experiment deals with T1, CCK receptor (pancreas) (Rattus norvegicus, UniProt P30551).
T1 construct: The whole pancreas was dissected free of fat tissue and was homogenized; from tissue; host or cells: rat pancreas membranes (Sprague-Dawley)
T1 sequence (P30551 1-444): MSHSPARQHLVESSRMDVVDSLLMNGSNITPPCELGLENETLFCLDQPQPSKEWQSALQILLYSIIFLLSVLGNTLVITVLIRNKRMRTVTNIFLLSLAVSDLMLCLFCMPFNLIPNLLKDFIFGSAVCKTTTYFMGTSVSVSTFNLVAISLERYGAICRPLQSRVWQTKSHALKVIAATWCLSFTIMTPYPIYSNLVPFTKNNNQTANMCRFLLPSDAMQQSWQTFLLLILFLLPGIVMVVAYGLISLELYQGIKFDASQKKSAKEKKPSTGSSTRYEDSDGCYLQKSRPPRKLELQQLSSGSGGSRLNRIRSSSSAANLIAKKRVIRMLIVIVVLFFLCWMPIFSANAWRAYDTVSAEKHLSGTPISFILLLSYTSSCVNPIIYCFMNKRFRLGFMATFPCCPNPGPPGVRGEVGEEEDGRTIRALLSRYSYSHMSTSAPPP
Briefly: CCK Receptor Binding (Pancreas): inhibition of ^125 I-CCK-33 binding. More on the design: species or system Male Sprague-Dawley rats. In outline: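 Bound ^125I-CCK-33 was counted in pellets after a 30 min, 37° C incubation followed by centrifugation. Membranes came from male Sprague-Dawley rat pancreas, assayed in Tris HCl pH 7.7 containing DTT, bacitracin, PMSF and o-phenanthroline. For Scatchard analysis, tracer was diluted with rising unlabelled CCK-33.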

The target in experiment [1] is T2, Gastrin receptor (gastric glands) (Cavia porcellus, UniProt H0VZC5).
T2 construct: The washed guinea pig gastric glands prepared as above were resuspended; from tissue; host or cells: guinea pig gastric mucosal glands (male Hartley)
T2 sequence (H0VZC5 1-426): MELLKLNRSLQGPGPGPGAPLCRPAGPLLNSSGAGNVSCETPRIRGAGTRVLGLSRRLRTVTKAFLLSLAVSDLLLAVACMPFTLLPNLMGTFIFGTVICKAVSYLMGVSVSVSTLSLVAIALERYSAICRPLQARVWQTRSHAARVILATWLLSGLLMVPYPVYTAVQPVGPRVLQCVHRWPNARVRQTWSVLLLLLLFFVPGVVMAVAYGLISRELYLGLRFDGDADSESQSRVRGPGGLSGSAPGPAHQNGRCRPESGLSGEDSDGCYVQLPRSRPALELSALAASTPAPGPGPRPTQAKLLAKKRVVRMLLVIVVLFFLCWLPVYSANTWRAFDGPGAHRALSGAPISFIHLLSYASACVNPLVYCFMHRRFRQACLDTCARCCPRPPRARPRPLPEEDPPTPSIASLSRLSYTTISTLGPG
Briefly: Gastrin Receptor Binding in Guinea Pig Gastric Glands. More on the design: species or system guinea pig (male Hartley).

Experiment [2] deals with T3, CCK receptor (brain, cerebral cortex) (Cavia porcellus, UniProt H0VZC5).
T3 construct: Cerebral cortex was dissected and used as a receptor source; from tissue; host or cells: guinea pig cerebral cortex membranes (male Hartley)
T3 sequence (H0VZC5 1-426): T2 sequence (H0VZC5 1-426)
Briefly: biochemical. In kind it is binding, Male Hartley guinea pigs. In outline: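 Binding of [radiolabeled] CCK-33 measured by gamma counting of centrifuged pellets after 2 h at 25°C. Membranes came from guinea pig brain cortex, suspended in 10 mM HEPES, 5 mM MgCl2, 1 mM EGTA, 0.25 mg/ml bacitracin, 0.4% BSA.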

Setting [3] is: IC50 ^125 I-CCK Pancreas, rat pancreas membranes, ^125 I-CCK-33, 37° C., 30 minutes.
Setting [4] is: IC50 ^125 I-Gastrin Gastric Glands, 25° C., 30 minutes.
[5] abbreviates: IC50 ^125 I-CCK Brain, guinea pig cerebral cortex, ^125 I-CCK-33, 25° C., 2 hours.
Where [6] appears, read: rat pancreas membranes, ^125 I-CCK-33, 37° C., 30 minutes; read-out: IC50 ^125 I-CCK Pancreas.
The mark [7] stands for this setting: ^125 I-gastrin, 25° C., 30 minutes, read-out: IC50 ^125 I-Gastrin Gastric Glands.
Where [8] appears, read: guinea pig cerebral cortex, ^125 I-CCK-33, 25° C., 2 hours, read-out: IC50 ^125 I-CCK Brain.
The mark [9] stands for this setting: read-out: IC50 ^125 I-CCK Pancreas; rat pancreas membranes, ^125 I-CCK-33, 37° C., 30 minutes.
Where [10] appears, read: read-out: IC50 ^125 I-CCK Brain, guinea pig cerebral cortex, ^125 I-CCK-33, 25° C., 2 hours.
Where [11] appears, read: read-out: IC50 ^125 I-Gastrin Gastric Glands, 25° C., 30 minutes.

Consider `O=C(OC1N=C(c2ccccc2F)c2ccccc2NC1=O)c1ccc(Cl)cc1` (racemic) [Example 179, 1,3-Dihydro-5-(2-fluorophenyl)-3(RS)-(4-chlorobenzoyl)oxy-2H-1,4-benzodiazepin-2-one], for which the IC50 on CCK receptor (pancreas) (setting [3]) was 4.4 µM; in experiment [1] (setting [4]), 18 µM; in experiment [2] (setting [5]), 3.6 µM.

As for `O=C(NC1N=C(c2ccccc2F)c2ccccc2NC1=S)c1ccc(Cl)cc1` (racemic) [Example 180, 1,3-Dihydro-5-(2-fluorophenyl)-3-(RS)-(4-chlorophenyl)carbonylamino-2H-1,4-benzodiazepin-2-thione], the values for the concentration for half-maximal inhibition (IC50) (on CCK receptor (pancreas) (setting [3]); in experiment [1] (setting [4]); in experiment [2] (setting [5])) were 0.016 µM, 11 µM and greater than 100 µM, respectively.

With `O=C(NC1N=C(c2ccccc2F)c2ccccc2NC1=S)c1cc2ccccc2[nH]1` (racemic) [Example 181, 1,3-Dihydro-5-(2-fluorophenyl)-3-(RS)-(2-indole) carbonylamino-2H-1,4-benzodiazepin-2-thione], the IC50 on CCK receptor (pancreas) (setting [3]) is 0.002 µM; in experiment [1] (setting [4]), 4.4 µM; in experiment [2] (setting [5]), 9.3 µM.

Take `CC(C)(C)OC(=O)N[C@H](Cc1c[nH]c2ccccc12)C(=O)Nc1ccccc1C(=O)c1ccccc1F` [Example 1, 2-N-(Nα-Boc-D-tryptophanyl)amino-2'-fluorobenzophenone]: the IC50 on CCK receptor (pancreas) (setting [6]) was 67 µM; in experiment [1] (setting [7]) it was 167 µM; in experiment [2] (read-out: IC50 ^125 I-CCK Brain), greater than 100 µM.

On to `CSC1=N[C@@H](Cc2cn(C)c3ccccc23)C(=O)N(C)c2ccccc21` [Example 7, 1,3-Dihydro-3(S)-[3'-(1'-methylindolyl)methyl]-1-methyl-5-methylthio-2H-1,4-benzodiazepin-2-one], for which the figures for the concentration for half-maximal inhibition (IC50) (on CCK receptor (pancreas) (setting [6]); in experiment [1] (setting [7]); in experiment [2] (setting [8])) were greater than 100 µM, greater than 100 µM and 100 µM, respectively.

Consider `CSC1=N[C@@H](Cc2c[nH]c3ccccc23)C(=O)N(C)c2ccccc21` [Example 8, 1,3-Dihydro-3(S)-(3'-indolyl)methyl-1-methyl-5-methylthio-2H-1,4-benzodiazepin-2-one], for which the figures for the 50% inhibitory concentration (IC50) (at CCK receptor (pancreas) (setting [6]); in experiment [1] (setting [7]); in experiment [2] (setting [8])) were 100 µM, 227 µM and 100 µM, respectively.

For the compound `O=C1Nc2ccccc2C(c2ccccc2F)=N[C@@H]1CC1CNc2ccccc21` (stereo partly drawn) [Example 9], the IC50 on CCK receptor (pancreas) (setting [3]) amounted to 10.7 µM; in experiment [1] (setting [7]), 78 µM; in experiment [2] (setting [5]), 48 µM.

Take `O=C1Nc2ccccc2C(c2ccccc2F)=N[C@@H]1CC1CNc2ccccc21` (stereo partly drawn) [Example 10]: the IC50 on CCK receptor (pancreas) (setting [9]) was 16.7 µM; in experiment [1] (setting [7]), 47 µM; in experiment [2] (setting [10]) it was greater than 100 µM.

On to `CC(C)C[C@H]1N=C(c2ccccc2)c2cc(Cl)ccc2NC1=O` [Example 14, 7-Chloro-1,3-dihydro-3(R)-(2-methyl-1-propyl)-5-phenyl-2H-1,4-benzodiazepin-2-one], for which the results for the IC50 (on CCK receptor (pancreas) (setting [3]); in experiment [1] (setting [4]); in experiment [2] (setting [5])) were 42 µM, 12 µM and 60 µM, respectively.

As to `O=C1Nc2ccc(Cl)cc2C(c2ccccc2)=N[C@@H]1COCc1ccccc1` [Example 15, 3(R)-Benzyloxymethyl-7-chloro-1,3-dihydro-5-phenyl-2H-1,4-benzodiazepin-2-one], the half-maximal inhibitory concentration (IC50) on CCK receptor (pancreas) (setting [3]) is 60 µM; in experiment [1] (setting [4]), 38 µM; in experiment [2] (setting [5]), 80 µM.

On to `O=C(NN=C1Nc2ccccc2C(c2ccccc2F)=N[C@@H]1Cc1c[nH]c2ccccc12)c1ccsc1` [Example 35, 1,3-Dihydro-5-(2-fluorophenyl)-3(R)-(3'-indolyl)methyl-2H-1,4-benzodiazepin-2-[N'-(3-thienoyl)]hydrazide], for which the 50% inhibitory concentration (IC50) at CCK receptor (pancreas) (setting [3]) was 10 µM; in experiment [1] (setting [4]) it was greater than 100 µM; in experiment [2] (setting [5]), 15 µM.

On to `CCN1C(=O)[C@@H](Cc2c[nH]c3ccccc23)N=C(c2ccccc2F)c2ccccc21` [Example 36, 1,3-Dihydro-1-ethyl-5-(2-fluorophenyl)-3(R)-(3'-indolyl)methyl-2H-1,4-benzodiazepin-2-one], for which the results for the IC50 (on CCK receptor (pancreas) (setting [3]); in experiment [1] (setting [4]); in experiment [2] (setting [5])) were 0.3 µM, greater than 100 µM and 30 µM, respectively.

In the case of `CC(C)CCN1C(=O)[C@@H](Cc2c[nH]c3ccccc23)N=C(c2ccccc2F)c2ccccc21` [Example 39, 1,3-Dihydro-5-(2-fluorophenyl)-3(R)-(3'-indolyl) methyl-1-(3-methylbutyl)-2H-1,4-benzodiazepine-2-one], the IC50 was 100 µM on CCK receptor (pancreas) (setting [3]), 23 µM in experiment [1] (setting [4]) and 30 µM in experiment [2] (setting [5]).

As to `O=C(O)CN1C(=O)[C@@H](Cc2c[nH]c3ccccc23)N=C(c2ccccc2F)c2ccccc21` [Example 43], the IC50 is 0.3 µM at CCK receptor (pancreas) (setting [9]), 5 µM in experiment [1] (setting [11]) and 23 µM in experiment [2] (setting [10]).

Regarding `CN1C(=O)[C@@H](Cc2cn(C(=O)c3ccc(Cl)cc3)c3ccccc23)N=C(c2ccccc2F)c2ccccc21` [Example 45, 1,3-Dihydro-5-(2-fluorophenyl)-3(R)-[3'-(1'-p-chlorobenzyloylindolyl)methyl]-1-methyl-2H-1,4-benzodiazepin-2-one], the values for the IC50 (on CCK receptor (pancreas) (setting [9]); in experiment [1] (setting [11]); in experiment [2] (setting [10])) were 10.6 µM, greater than 1000 µM and greater than 100 µM, respectively.

For `O=C1Nc2ccc(Cl)cc2C(c2ccccc2)=N[C@@H]1Cc1cn(-c2ccc([N+](=O)[O-])cc2[N+](=O)[O-])cn1` [Example 55, 7-Chloro-1,3-dihydro-3(R)-[(3'-(2,4-dinitrophenyl)imidazol-5'-yl)-methyl]-5-phenyl-2H-1,4-benzodiazepin-2-one], the 50% inhibitory concentration (IC50) on CCK receptor (pancreas) (setting [3]) is 7.6 µM; in experiment [1] (setting [7]), 76 µM; in experiment [2] (setting [8]), 38.6 µM.

For the compound `NCCCC[C@H]1N=C(c2ccccc2F)c2ccccc2NC1=O` [Example 65, 1,3-Dihydro-5-(2'-fluorophenyl)-3(R)-(4-amino)butyl-2H-1,4-benzodiazepin-2-one], the IC50 on CCK receptor (pancreas) (setting [3]) was greater than 100 µM; in experiment [1] (setting [4]), greater than 1000 µM; in experiment [2] (setting [5]), greater than 100 µM.

For `CN1C(=O)[C@@H](N)N=C(c2ccccc2)c2ccccc21` [Example 85a, 3(S)-(-)-3-Amino-1,3-dihydro-1-methyl-5-phenyl-2H-1,4-benzodiazepin-2-one], the values for the IC50 (at CCK receptor (pancreas) (setting [6]); in experiment [1] (setting [4]); in experiment [2] (setting [5])) were 100 µM, greater than 100 µM and greater than 100 µM, respectively.

For `CN1C(=O)[C@@H](NC(=O)c2cc3ccccc3[nH]2)N=C(c2ccccc2F)c2ccccc21` [Example 88, 3(S)-(+)-1,3-Dihydro-5-(2-fluorophenyl)-3-(2-indole-carbonylamino)-1-methyl-2H-1,4-benzodiazepin-2-one], the IC50 is 0.0006 µM on CCK receptor (pancreas) (setting [6]), 0.027 µM in experiment [1] (setting [7]) and 0.3 µM in experiment [2] (setting [5]).

Regarding `CN1C(=O)[C@H](NC(=O)c2cc3ccccc3[nH]2)N=C(c2ccccc2F)c2ccccc21` [Example 89, 3(R)-(-)-1,3-Dihydro-5-(2-fluorophenyl)-3-(2-indole-carbonylamino)-1-methyl-2H-1,4-benzodiazepin-2-one], the IC50 is 0.019 µM on CCK receptor (pancreas) (setting [6]), 0.24 µM in experiment [1] (setting [7]) and 1.1 µM in experiment [2] (setting [5]).

Consider `CN1C(=O)[C@H](NC(=O)c2ccc(Cl)cc2)N=C(c2ccccc2F)c2ccccc21` [Example 90, 3(R)-(-)-1,3-Dihydro-3-(4-chlorobenzoylamino)-5-(2-fluorophenyl)-1-methyl-2H-1,4-benzodiazepin-2-one], for which the IC50 at CCK receptor (pancreas) (setting [6]) came to 0.049 µM; in experiment [1] (setting [7]) it was 5.2 µM; in experiment [2] (setting [5]) it was 11 µM.
